The values below come from patent US12036208B2, “Methods for treating neurodegenerative disorders” (Alzheon, Inc., priority 2017, dated 2024).

This assay deals with T1, recombinant human β-Amyloid Peptide (1-42) (Homo sapiens, UniProt P05067).
T1 construct: recombinant human β-Amyloid Peptide (1-42) from BioLegend; purchased BioLegend 843801
T1 sequence (P05067 672-713 limits assumed): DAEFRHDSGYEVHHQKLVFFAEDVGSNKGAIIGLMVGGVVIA
Description: Binding assay: mass spectrometry (Q-TOF) of compounds binding to Aβ1-42. To be noted: 22 pmol/μL β-Amyloid Peptide (1-42), 1100 pmol/μL test compound; direct infusion Q-TOF MS at room temperature. From the text:
The activity of the compounds utilized in the methods described herein can be assayed by measuring the binding of those compounds to β-amyloid. Data acquisition can be performed using a Waters Synapt G2-S quadrupole time of flight mass spectrometer (Q-TOF MS) with traveling wave ion mobility (Waters Corp. 34 Maple Street Milford, MA 01757). The data can be acquired using the systems sensitivity mode to allow for the detection of the less abundant oligomers. Samples can be infused at room temperature due to lower solubility of the peptide at body temperature ([…]).
One mg of compound can be reconstituted in 1 mL of Fisher Optima LC/MS grade water (cat: W6-1) and vortexed vigorously for 2 minutes until completely dissolved. The sample can be then diluted to create a 220 pmol/μL, 2200 pmol/μL, and 22,000 pmol/μL solutions to perform binding experiments to Aβ42 with 10-, 100-, and 1000-fold molar excess of tested compound.
One mg of recombinant human β-Amyloid Peptide (1-42) from BioLegend can be reconstituted in 200 μL of Fisher Optima LC/MS grade water and vortexed vigorously to solubilize the peptide creating a 5 mg/mL solution. Samples can be then diluted to a final concentration of 44 pmol/μL prior to mixing (1:1) with test compound solution. Final concentrations were 22 pmol/μL for human β-Amyloid Peptide (1-42) and 1100 pmol/μL for test compounds.
The data acquisition was performed using a Waters time of flight mass spectrometer (Q-TOF Micro). The data was acquired using the scanning mode to allow for the detection of the peptide. Samples were infused at room temperature. The mass spectrometer conditions were maintained throughout the study to ensure consistency of the data. The Waters Q-TOF conditions were as follows:
Samples were directly infused into the mass spectrometer at a flow rate of 20 μL/min using in-build Syringe Pump and Hamilton 1 mL Syringe and the acquisition time was kept 2 minutes.
Regarding `Nc1nc2cc(S(=O)(=O)O)cc(N)c2o1` [Compound 172], the “Number of Molecules Bound to Aβ1-42 (# of Molecules Bound to Aβ)” value (“Number of Molecules Bound” for short) amounted to 0.

Consider `O=C(O)c1cc(=O)n(-c2ccc(S(=O)(=O)O)cc2)[nH]1` [Compound 161], for which the “Number of Molecules Bound” value is recorded as 0.

`Nc1cc(S(=O)(=O)O)cc(C(=O)O)c1O` [Compound 143]: the “Number of Molecules Bound” value was 0.

For `Cc1cc(=O)n(-c2cccc(S(=O)(=O)O)c2)[nH]1` [Compound 154], the “Number of Molecules Bound” value was determined as 1.

In the case of `Nc1cccc2ccc(S(=O)(=O)O)cc12` [Compound 136], the “Number of Molecules Bound” value was found to be 0.

Consider `Nc1ncc(S(=O)(=O)O)s1` [Compound 124], for which the “Number of Molecules Bound” value amounted to 3.

For the compound `CN(C)C(=O)[n+]1ccc(CCS(=O)(=O)[O-])cc1` [Compound 158], the “Number of Molecules Bound” value is listed as 0.

Regarding `Cc1ccc2nc(-c3ccc(N)cc3)sc2c1S(=O)(=O)O` [Compound 164], the “Number of Molecules Bound” value turned out to be 0.

`Cn1cnnc1S(=O)(=O)O` [Compound 119]: the “Number of Molecules Bound” value was 0.

With `Nc1ccc(Nc2ccc(N)cc2S(=O)(=O)O)cc1` [Compound 160], the “Number of Molecules Bound” value is 1.

Take `Nc1cccc2cc(S(=O)(=O)O)ccc12` [Compound 139]: the “Number of Molecules Bound” value turned out to be 0.

As for `Nc1ccc(N)c(S(=O)(=O)O)c1` [Compound 126], the “Number of Molecules Bound” value was 1.

Take `Nc1ccc(-c2ccc(N)cc2S(=O)(=O)O)c(S(=O)(=O)O)c1` [Compound 166]: the “Number of Molecules Bound” value worked out at 2.

As to `O=S(=O)(O)c1ccc2[nH]cnc2c1` [Compound 130], the “Number of Molecules Bound” value stood at 0.

In the case of `Nc1ccncc1S(=O)(=O)O` [Compound 171], the “Number of Molecules Bound” value is listed as 7.

Take `Cc1cc(C)n(-c2ccc(S(=O)(=O)O)cc2)n1` [Compound 152]: the “Number of Molecules Bound” value amounted to 1.

As to `Nc1ccc(S(=O)(=O)O)c2ccccc12` [Compound 137], the “Number of Molecules Bound” value is on record as 0.

Turning to `Nc1ccc2c(S(=O)(=O)O)cccc2c1N` [Compound 144], the “Number of Molecules Bound” value is given as 0.

On to `Cc1cc(C)[n+]2cc(S(=O)(=O)[O-])sc2n1` [Compound 148], for which the “Number of Molecules Bound” value came out at 5.

For `Nc1ccc(S(=O)(=O)O)c(N)c1` [Compound 127], the “Number of Molecules Bound” value is 0.

Take `Nc1ccc(S(=O)(=O)O)cn1` [Compound 170]: the “Number of Molecules Bound” value stood at 6.

Regarding `Nc1ccc2ccc(S(=O)(=O)[O-])cc2c1.[Na+]` [Compound 149], the “Number of Molecules Bound” value amounted to 0.

In the case of `O=S(=O)(O)c1ccc(Nc2ccccc2)cc1` [Compound 150], the “Number of Molecules Bound” value was found to be 0.

Consider `CCOC(=O)c1cnn(-c2ccc(S(=O)(=O)O)cc2)c1N` [Compound 163], for which the “Number of Molecules Bound” value was determined as 0.

On to `Nc1cccc(S(=O)(=O)O)c1` [Compound 121], for which the “Number of Molecules Bound” value stood at 0.

Regarding `CCCn1c(S(=O)(=O)O)nc2ccccc21` [Compound 145], the “Number of Molecules Bound” value was 0.

For the compound `NCc1ccc(S(=O)(=O)O)cc1` [Compound 125], the “Number of Molecules Bound” value turned out to be 0.

As for `Nc1cc(S(=O)(=O)O)ccc1O` [Compound 128], the “Number of Molecules Bound” value stood at 0.

For the compound `Nc1ccc2cc(S(=O)(=O)O)ccc2c1` [Compound 135], the “Number of Molecules Bound” value is 0.

As to `O=S(=O)(O)c1ccc2c(c1)NCC2` [Compound 131], the “Number of Molecules Bound” value was 0.

Regarding `Cn1c(S(=O)(=O)O)nc2ccccc21` [Compound 133], the “Number of Molecules Bound” value is reported as 0.

In the case of `C[n+]1cccc(S(=O)(=O)[O-])c1` [Compound 120], the “Number of Molecules Bound” value was 8.

`Cc1oc2ccc(-c3ccccc3)cc2[n+]1CCCS(=O)(=O)[O-]` [Compound 165]: the “Number of Molecules Bound” value was 1.

On to `Nc1ccc(S(=O)(=O)O)cc1` [Compound 122], for which the “Number of Molecules Bound” value is given as 0.

As for `Cn1cc(S(=O)(=O)O)cn1` [Compound 118], the “Number of Molecules Bound” value is 1.

As to `O=S(=O)(O)c1nnc[nH]1` [Compound 117], the “Number of Molecules Bound” value is recorded as 3.

As to `CC[n+]1ccc(-c2cccc(S(=O)(=O)[O-])c2)o1` [Compound 153], the “Number of Molecules Bound” value was 5.

Regarding `NC1=NN(c2ccc(Oc3ccccc3)c(S(=O)(=O)O)c2)C(=O)C1` [Compound 168], the “Number of Molecules Bound” value came to 0.

For the compound `COC(=O)c1cc(OC)c(S(=O)(=O)O)s1` [Compound 151], the “Number of Molecules Bound” value was determined as 0.

Take `Nc1cc(S(=O)(=O)[O-])c2cccc(S(=O)(=O)[O-])c2c1.[Na+].[Na+]` [Compound 167]: the “Number of Molecules Bound” value came out at 0.

Regarding `Nc1cccc2c(S(=O)(=O)O)cccc12` [Compound 138], the “Number of Molecules Bound” value stood at 0.

As for `Nc1ccc2cc(S(=O)(=O)O)ccc2c1.O` [Compound 146], the “Number of Molecules Bound” value is reported as 0.

With `O=C1Nc2ccc(S(=O)(=O)O)cc2CO1` [Compound 141], the “Number of Molecules Bound” value worked out at 0.

As to `Nc1nc2ccc(S(=O)(=O)O)cc2s1` [Compound 142], the “Number of Molecules Bound” value worked out at 2.

As to `Nc1ccc2c(S(=O)(=O)O)cccc2c1` [Compound 140], the “Number of Molecules Bound” value is recorded as 0.

With `Nc1ncnc2[nH]c(S(=O)(=O)O)nc12` [Compound 134], the “Number of Molecules Bound” value was 2.
